The subject of data set [1] is α-glucosidase. The settings on record: in words; valiolamine and N-substituted valiolamine derivatives (European Patent Publication No. 56194 and 89812); cited from earlier work.
A further data set deals with Rhizoctonia solanii. Nature of the data set: minimum concentration causing the abnormal branching at the tops of hypha of Rhizoctonia solanii. The class given is cell-based. The settings on record: method: J. Antibiotics 24,114-118 (1971). How it is done: For example, the minimum concentration causing the abnormal branching at the tops of hypha of Rhizoctonia solanii [See J. Antibiotics 24,114-118 (1971)}was 0.5 μg/mL for VM-G and 2.5 μg/mL for VA-G.

Data set [2] has as its target T1, sucrase from porcine small intestine (Sus scrofa, UniProt P56729).
T1 construct: sucrase from porcine small intestine; from tissue; host or cells: porcine small intestine
Nature of the data set: inhibition of sucrase from porcine small intestine (substrate 50 mM sucrose). To be noted: read-out: IC50 (molarity required for 50% inhibition of the enzymatic activity) against sucrase. The class given is biochemical.

Data set [3] has as its system α-glucosidase. The data set is described as follows: α-glucosidase-inhibiting activity (stated in words). The settings on record: VA-G and VM-G. The data set is classed as biochemical.
For data set [4], the system named is sheath blight of the rice plant. The data set is described as follows: activity against the sheath blight of the rice plant (stated in words). The settings on record: VA-G and VM-G.
The next data set can be described thus: Solubility in solvents. The data set is classed as physicochemical. To be noted: for solubility in water: in words, for isolation and purification.
Where [5] appears, read: in ethanol, ethyl acetate, chloroform, and acetone.
The mark [6] stands for this setting: in water, dimethylsulfoxide, and methanol.

T1 sequence (P56729 with tags, fused parts or gaps limits assumed): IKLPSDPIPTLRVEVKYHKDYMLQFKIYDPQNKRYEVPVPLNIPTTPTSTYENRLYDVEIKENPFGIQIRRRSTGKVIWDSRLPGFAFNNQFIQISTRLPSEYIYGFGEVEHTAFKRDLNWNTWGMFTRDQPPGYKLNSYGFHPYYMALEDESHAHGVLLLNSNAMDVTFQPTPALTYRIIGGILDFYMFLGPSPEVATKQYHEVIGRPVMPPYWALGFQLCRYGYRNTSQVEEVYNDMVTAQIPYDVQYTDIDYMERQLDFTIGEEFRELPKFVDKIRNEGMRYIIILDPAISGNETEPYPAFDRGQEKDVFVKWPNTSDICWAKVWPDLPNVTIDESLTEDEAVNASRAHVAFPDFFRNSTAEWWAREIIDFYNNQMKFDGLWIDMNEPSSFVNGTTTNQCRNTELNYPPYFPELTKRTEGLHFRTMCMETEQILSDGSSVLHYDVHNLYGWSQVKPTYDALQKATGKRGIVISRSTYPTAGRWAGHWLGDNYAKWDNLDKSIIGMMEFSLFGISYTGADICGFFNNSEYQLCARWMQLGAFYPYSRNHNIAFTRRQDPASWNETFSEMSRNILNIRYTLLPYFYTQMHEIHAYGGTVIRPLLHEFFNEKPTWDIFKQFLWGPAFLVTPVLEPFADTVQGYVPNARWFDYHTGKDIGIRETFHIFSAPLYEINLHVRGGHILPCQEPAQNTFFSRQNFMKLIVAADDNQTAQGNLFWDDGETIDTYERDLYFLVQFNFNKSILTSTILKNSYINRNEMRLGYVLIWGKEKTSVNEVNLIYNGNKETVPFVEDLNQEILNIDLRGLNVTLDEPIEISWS
T1 sequence (P56729 with tags, fused parts or gaps partner limits assumed): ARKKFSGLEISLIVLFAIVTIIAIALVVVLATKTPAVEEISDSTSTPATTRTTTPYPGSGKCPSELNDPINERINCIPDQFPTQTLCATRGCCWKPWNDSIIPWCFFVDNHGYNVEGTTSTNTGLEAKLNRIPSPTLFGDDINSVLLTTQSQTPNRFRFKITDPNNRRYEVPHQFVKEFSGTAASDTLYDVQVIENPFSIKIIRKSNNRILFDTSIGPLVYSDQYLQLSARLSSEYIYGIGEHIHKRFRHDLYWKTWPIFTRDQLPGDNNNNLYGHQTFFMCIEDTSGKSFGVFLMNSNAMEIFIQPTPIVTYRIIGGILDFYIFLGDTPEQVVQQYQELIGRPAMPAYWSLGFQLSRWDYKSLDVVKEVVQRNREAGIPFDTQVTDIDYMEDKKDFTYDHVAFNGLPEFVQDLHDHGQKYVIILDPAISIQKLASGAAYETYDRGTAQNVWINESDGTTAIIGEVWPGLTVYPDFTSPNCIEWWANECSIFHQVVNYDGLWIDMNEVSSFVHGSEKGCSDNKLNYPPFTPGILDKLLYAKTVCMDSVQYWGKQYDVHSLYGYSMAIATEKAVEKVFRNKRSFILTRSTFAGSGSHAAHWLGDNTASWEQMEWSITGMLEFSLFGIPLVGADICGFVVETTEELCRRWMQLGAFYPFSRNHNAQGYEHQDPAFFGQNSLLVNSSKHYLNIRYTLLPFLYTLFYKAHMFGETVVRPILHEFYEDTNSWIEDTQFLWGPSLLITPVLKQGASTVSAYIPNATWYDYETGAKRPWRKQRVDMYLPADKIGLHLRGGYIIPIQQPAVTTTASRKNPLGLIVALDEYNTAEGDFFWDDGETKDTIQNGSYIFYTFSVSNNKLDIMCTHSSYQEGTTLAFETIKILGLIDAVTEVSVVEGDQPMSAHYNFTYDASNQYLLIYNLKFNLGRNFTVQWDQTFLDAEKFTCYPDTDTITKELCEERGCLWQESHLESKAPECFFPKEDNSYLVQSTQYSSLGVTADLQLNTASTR

On to `OC[C@@]1(O)C[C@H](NCCc2ccccc2)[C@H](O)[C@@H](O)[C@@H]1O` [(1), N-phenethylvaliolamine], for which, in the data set on α-glucosidase [1], the α-glucosidase-inhibitory action result is “potent α-glucosidase-inhibitory action”. As for `OC[C@@]1(O)C[C@H](NCC=Cc2ccccc2)[C@H](O)[C@@H](O)[C@@H]1O` [(2), N-(3-phenylallyl)valiolamine], in the data set with α-glucosidase [1], the α-glucosidase-inhibitory action entry is listed as “potent α-glucosidase-inhibitory action”.

As for `OC[C@@]1(O)C[C@H](NCc2ccco2)[C@H](O)[C@@H](O)[C@@H]1O` [(3), N-furfurylvaliolamine], the α-glucosidase-inhibitory action entry in the data set on α-glucosidase [1] was “potent α-glucosidase-inhibitory action”. With `OC[C@@]1(O)C[C@H](NCc2cccs2)[C@H](O)[C@@H](O)[C@@H]1O` [(4), N-thenylvaliolamine], the α-glucosidase-inhibitory action entry in the data set with α-glucosidase [1] was “potent α-glucosidase-inhibitory action”. For the compound `OC[C@@]1(O)C[C@H](NCc2cccnc2)[C@H](O)[C@@H](O)[C@@H]1O` [(5), N-(3-pyridylmethyl)valiolamine], in the data set on α-glucosidase [1], the α-glucosidase-inhibitory action result is “potent α-glucosidase-inhibitory action”. Consider `OC[C@@]1(O)C[C@H](NCc2ccc(Br)cc2)[C@H](O)[C@@H](O)[C@@H]1O` [(6), N-(4-bromobenzyl)valiolamine], for which the α-glucosidase-inhibitory action result in the data set with α-glucosidase [1] is recorded as “potent α-glucosidase-inhibitory action”.

Regarding `OC[C@@]1(O)C[C@H](NC[C@H](O)c2ccccc2)[C@H](O)[C@@H](O)[C@@H]1O` [(7), N-[(R)-β-hydroxyphenethyl]valiolamine], the α-glucosidase-inhibitory action entry with α-glucosidase [1] is recorded as “potent α-glucosidase-inhibitory action”.

Turning to `OC[C@@]1(O)C[C@H](NC[C@@H](O)c2ccccc2)[C@H](O)[C@@H](O)[C@@H]1O` [(8), N-[(S)-β-hydroxyphenethyl]valiolamine], the α-glucosidase-inhibitory action result in the data set on α-glucosidase [1] is reported as “potent α-glucosidase-inhibitory action”.

Regarding `COc1ccccc1C(O)CN[C@H]1C[C@](O)(CO)[C@@H](O)[C@H](O)[C@H]1O` (stereo partly drawn) [(9), N-(β-hydroxy-2-methoxyphenethyl)valiolamine], the α-glucosidase-inhibitory action entry with α-glucosidase [1] is on record as “potent α-glucosidase-inhibitory action”. Consider `CC(C)(C)c1cc(CN[C@H]2C[C@](O)(CO)[C@@H](O)[C@H](O)[C@H]2O)cc(C(C)(C)C)c1O` [(10), N-(3,5-di-tert-butyl-4-hydroxybenzyl)valiolamine], for which the α-glucosidase-inhibitory action entry in the data set with α-glucosidase [1] is on record as “potent α-glucosidase-inhibitory action”. Regarding `OC[C@@]1(O)C[C@H](NCC2CCCCC2)[C@H](O)[C@@H](O)[C@@H]1O` [(11), N-(cyclohexylmethyl)valiolamine], in the data set with α-glucosidase [1], the α-glucosidase-inhibitory action result is listed as “potent α-glucosidase-inhibitory action”. As for `CC(C)=CCC/C(C)=C/CN[C@H]1C[C@](O)(CO)[C@@H](O)[C@H](O)[C@H]1O` [(12), N-geranylvaliolamine], the α-glucosidase-inhibitory action entry in the data set with α-glucosidase [1] was “potent α-glucosidase-inhibitory action”.

Turning to `OCC(CO)N[C@H]1C[C@](O)(CO)[C@@H](O)[C@H](O)[C@H]1O` [(13), N-(1,3-dihydroxy-2-propyl)valiolamine], the α-glucosidase-inhibitory action entry in the data set with α-glucosidase [1] is listed as “potent α-glucosidase-inhibitory action”. For the compound `OCC(N[C@H]1C[C@](O)(CO)[C@@H](O)[C@H](O)[C@H]1O)C(O)c1ccccc1` (stereo partly shown) [(14), N-(1,3-dihydroxy-1-phenyl-2-propyl)valiolamine], the α-glucosidase-inhibitory action result with α-glucosidase [1] is listed as “potent α-glucosidase-inhibitory action”.

In the case of `OC[C@H](N[C@H]1C[C@](O)(CO)[C@@H](O)[C@H](O)[C@H]1O)c1ccccc1` [(15), N-[(R)-o-(hydroxymethyl)benzyl]valiolamine], the α-glucosidase-inhibitory action entry in the data set on α-glucosidase [1] is on record as “potent α-glucosidase-inhibitory action”. For `OC[C@@]1(O)C[C@H](NC2CCCCC2)[C@H](O)[C@@H](O)[C@@H]1O` [(16), N-cyclohexylvaliolamine], the α-glucosidase-inhibitory action result in the data set on α-glucosidase [1] was “potent α-glucosidase-inhibitory action”. For `OC[C@@]1(O)C[C@H](NC2CCCCC2O)[C@H](O)[C@@H](O)[C@@H]1O` (stereo partly shown) [(17), N-(2-hydroxycyclohexyl)valiolamine], the α-glucosidase-inhibitory action result with α-glucosidase [1] is given as “potent α-glucosidase-inhibitory action”. As to `OC[C@@]1(O)C[C@H](N[C@@H]2CCCC[C@H]2O)[C@H](O)[C@@H](O)[C@@H]1O` [(18), N-[(1R,2R)-2-hydroxycyclohexyl]valiolamine], the α-glucosidase-inhibitory action entry in the data set on α-glucosidase [1] is “potent α-glucosidase-inhibitory action”. As to `OC[C@@]1(O)C[C@H](NC2CCCC2O)[C@H](O)[C@@H](O)[C@@H]1O` (stereo partly shown) [(19), N-(2-hydroxycyclopentyl)valiolamine], in the data set on α-glucosidase [1], the α-glucosidase-inhibitory action result is “potent α-glucosidase-inhibitory action”. Take `CO[C@H]1O[C@H](C)[C@@H](N[C@H]2C[C@](O)(CO)[C@@H](O)[C@H](O)[C@H]2O)[C@H](O)[C@H]1O` [(20), Methyl 4-[(1S,2S)-(2,4,5(OH)/3,5)-2,3,4,5-tetrahydroxy-5-(hydroxymethyl)cyclohexyl]amino-4,6-dideoxy-α-D-glucopyranoside]: in the data set on α-glucosidase [1], the α-glucosidase-inhibitory action result is given as “potent α-glucosidase-inhibitory action”.

Turning to `N[C@H]1C[C@H](CO)[C@@H](N[C@H]2C[C@](O)(CO)[C@@H](O)[C@H](O)[C@H]2O)[C@H](O)[C@H]1O` [(22), [(1S,2S)-(2,4,5(OH)/3,5)-2,3,4,5-tetrahydroxy-5-(hydroxymethyl)cyclohexyl][(1R,2S)-(2,6/3,4)-4-amino-2,3-dihydroxy-6-(hydroxymethyl)cyclohexyl]-amine], the α-glucosidase-inhibitory action result in the data set with α-glucosidase [1] is “potent α-glucosidase-inhibitory action”. On to `OC[C@H]1C[C@@H](N[C@H]2C[C@](O)(CO)[C@@H](O)[C@H](O)[C@H]2O)[C@H](O)[C@@H](O)[C@@H]1O` [(23), N-[(1R,2S)-(2,4/3,5)-2,3,4-trihydroxy-5-(hydroxymethyl)cyclohexyl]valiolamine], for which the α-glucosidase-inhibitory action result in the data set on α-glucosidase [1] is listed as “potent α-glucosidase-inhibitory action”.

As to `C[C@H]1C[C@H](N)[C@H](O)[C@@H](O)[C@@H]1N[C@H]1C[C@](O)(CO)[C@@H](O)[C@H](O)[C@H]1O` [(24), N-[(1R,2S)-(2,6/3,4)-4-amino-2,3-dihydroxy-6-methylcyclohexyl]valiolamine], the α-glucosidase-inhibitory action result in the data set on α-glucosidase [1] is reported as “potent α-glucosidase-inhibitory action”. Take `C[C@H]1C[C@H](O)[C@H](O)[C@@H](O)[C@@H]1N[C@H]1C[C@](O)(CO)[C@@H](O)[C@H](O)[C@H]1O` [(25), N-[(1R,2S)-(2,6/3,4)-2,3,4-trihydroxy-6-methylcyclohexyl]valiolamine]: the α-glucosidase-inhibitory action result with α-glucosidase [1] was “potent α-glucosidase-inhibitory action”. For the compound `C[C@H]1C[C@@H](O)[C@H](O)[C@@H](O)[C@@H]1N[C@H]1C[C@](O)(CO)[C@@H](O)[C@H](O)[C@H]1O` [(26), N-[(1R,2S)-(2,4,6/3)-2,3,4-trihydroxy-6-methylcyclohexyl]valiolamine], the α-glucosidase-inhibitory action result in the data set with α-glucosidase [1] is “potent α-glucosidase-inhibitory action”. With `C[C@H]1O[C@H](O[C@H]2[C@H](O)[C@@H](O)C(O)O[C@@H]2CO)[C@H](O)[C@@H](O)[C@@H]1N[C@H]1C[C@](O)(CO)[C@@H](O)[C@H](O)[C@H]1O` (stereo partly drawn) [(27), 4-O-α-[4-[[(1S)-(1,2,4,5(OH)/3,5)-2,3,4,5-tetrahydroxy-5-(hydroxymethyl)cyclohexyl]amino]-4,6-dideoxy-D-glucopyranosyl]-D-glucopyranose], the α-glucosidase-inhibitory action result in the data set on α-glucosidase [1] was “potent α-glucosidase-inhibitory action”.

For `C[C@H]1O[C@H](O[C@H]2[C@H](O)[C@@H](O)[C@@H]3OC[C@H]2O3)[C@H](O)[C@@H](O)[C@@H]1N[C@H]1C[C@](O)(CO)[C@@H](O)[C@H](O)[C@H]1O` [(28)], the α-glucosidase-inhibitory action entry with α-glucosidase [1] is on record as “potent α-glucosidase-inhibitory action”.

As to `OCC1=C[C@H](N[C@H]2C[C@](O)(CO)[C@@H](O)[C@H](O)[C@H]2O)[C@H](O)[C@@H](O)[C@@H]1O` [VA-G, validoxylamine G], the minimal effective concentration – broadly, the smallest amount tested that counted as effective – with Rhizoctonia solanii came to 2.5 µg/mL. Besides, the IC50 (usually the concentration that gives 50% inhibition) in data set [2] is 8.8 µM. Moreover, the α-glucosidase-inhibiting activity result in the data set on α-glucosidase [3] is listed as “α-glucosidase-inhibiting activity”. Besides, the “activity against the sheath blight of the rice plant” value in data set [4] is “an activity against the sheath blight of the rice plant”. Besides, the Solubility in solvents result was “Slightly soluble or insoluble” in the data set “Solubility in solvents” (setting [5]) and “Soluble” in the data set “Solubility in solvents” (setting [6]). The solubility in water result in the data set “Solubility in solvents” was “water-soluble basic substances”. As to `OCC1=C[C@H](N[C@H]2C[C@](O)(CO)[C@@H](O[C@@H]3O[C@H](CO)[C@@H](O)[C@H](O)[C@H]3O)[C@H](O)[C@H]2O)[C@H](O)[C@@H](O)[C@@H]1O` [VM-G, validamycin G], the minimal effective concentration in the data set with Rhizoctonia solanii is 0.5 µg/mL. The IC50 in data set [2] was 110 µM. In addition, the α-glucosidase-inhibiting activity result in the data set on α-glucosidase [3] is listed as “α-glucosidase-inhibiting activity”. The “activity against the sheath blight of the rice plant” value in data set [4] was “an activity against the sheath blight of the rice plant”. The Solubility in solvents entry in the data set “Solubility in solvents” (setting [5]) is recorded as “Slightly soluble or insoluble”; in “Solubility in solvents” (setting [6]), “Soluble”. The solubility in water entry in the data set “Solubility in solvents” is reported as “water-soluble basic substances”. On to `N[C@H]1C[C@](O)(CO)[C@@H](O)[C@H](O)[C@H]1O` [Valiolamine, valiolamine], for which the α-glucosidase-inhibitory action result in the data set with α-glucosidase [1] is given as “potent α-glucosidase-inhibitor”.

Regarding “Methyl 4-[(1S,2S)-(2,4,5(OH)/3,5)-2,3,4,5-deoxy-α-D-glucopyranoside [(21)]”, in the data set with α-glucosidase [1], the α-glucosidase-inhibitory action result is on record as “potent α-glucosidase-inhibitory action”.
